According to US20110105515A1, “TARGETING THE ONCOPROTEIN NUCLEOPHOSMIN” (President and Fellows of Harvard College, priority 2007, published 2011):
“Also recorded” adds a separate entry of the source.

What was measured:
exportin-1 (XPO1) = molecular target: T1, exportin-1 (XPO1) (Homo sapiens, UniProt O14980); experiment: Competitive binding affinity-isolation with probe 5 in T-47D lysates, exportin-1; conditions: 10 μM probe 5, 100 μM inhibitor
T1 construct: endogenous in cells; host or cells: T-47D lysate
From the text: (§1) The supernatant was discarded.
(§2) See above for solution preparation.

peroxiredoxin 1 (PRX1) = molecular target: T2, peroxiredoxin 1 (PRX1) (Homo sapiens, UniProt Q06830); experiment: Competitive binding affinity-isolation with probe 5 in T-47D lysates, peroxiredoxin 1; conditions: 10 μM probe 5, 100 μM inhibitor
T2 construct: endogenous in cells; host or cells: T-47D lysate
From the text: as §1, §2

HeLa S3 cells [1] = experiment: Transfection/apoptosis experiments in nucleophosmin-depleted HeLa S3 cells; assay type: cell-based, human; conditions: 24 h, Yo-Pro iodide/propidium iodide flow cytometry
Description: The concentration of the cell suspension was determined using a hemacytometer, and a suspension of 1×10^5 cells/mL was prepared.
A siRNA targeting NPM1.1 (Applied Biosystems, Cat. No. AM16708; ID 143640; 11.4 μL from a 50 μM stock solution) was added to Opti-MEM (938.6 μL). At the same time, a control siRNA (Applied Biosystems, Cat. No. AM4611; 11.4 μL from a 50 μM stock) was similarly added to Opti-MEM (938.6 μL).
The culture flasks were rinsed with an additional 5 mL medium, which was likewise added to the centrifuge tubes.
The concentration of the cell suspensions was determined using a hemacytometer. Over the course of the 2 d transfection period, both the transfected and mock-transfected cells grew ˜4-fold.
12-well plates were charged with 3 mL per well of suspensions of the transfected or mock-transfected cells, at 2.5×10^4 cells per mL. […] The following day, solutions of cell culture medium containing (+)-avrainvillamide or vehicle control were prepared. 500-μL aliquots of these solutions were added to the 3-mL samples. The treated samples were returned to the incubator (37° C., 5% CO2) for 24 h.
The supernatant was discarded, and the samples were cooled on ice. Apoptosis detection buffer (500 μL; see above for preparation) was added to each sample. […]
Each sample was analyzed on an LSRII flow cytometer, with 20,000 events recorded per sample. […]

p53 [2] = experiment: Effect of (+)-avrainvillamide incubation on p53/nucleophosmin, T-47D cells (Western-blot); assay type: cell-based, human; conditions: 24 h
Description: (§3) Four 6-well plates (two for each cell line) were charged with 6 mL per well of cell suspension at 2×10^5 cells/mL. […] The following day, stock solutions of (+)-avrainvillamide (1) in fresh cell culture medium were prepared as indicated below:
(§4) To each 6-mL sample, a 200-μL aliquot of the appropriate stock solution was added, resulting in a final concentration of 0-4 μM (+)-avrainvillamide (1). The samples were returned to the incubator (37° C., 5% CO2) for 24 h.
(§5) The cells were resuspended in 1 mL PBS and mixed thoroughly. A 500-μL aliquot from each sample was transferred to a fresh 1.5-mL centrifuge tube. All the samples were centrifuged (5 min at 500×g) and the supernatant was discarded. The resulting 20 samples (10 samples of T-47D cells, treated with 0-4 μM (+)-avrainvillamide, and 10 samples of LNCaP cells, treated with 0-4 μM (+)-avrainvillamide (1), where each sample contained the number of cells from 1 well of a 6-well plate) were separated into two groups. One group of samples was lysed in RIPA buffer (see below) to prepare a series of whole-cell lysates. The other group of samples was first treated with sucrose-hypotonic buffer to prepare a series of cytosolic lysates. The remaining pellets were washed and treated with RIPA buffer to prepare a series of nuclear-enriched lysates (see below).

p53 [3] = experiment: Effect of (+)-avrainvillamide incubation on p53/nucleophosmin, LNCaP cells (Western-blot); assay type: cell-based, human; conditions: 24 h
Description: as §3, §4, §5

[4] = tested on: MALME-3M and MALME-3 cells; experiment: Selectivity assay, malignant melanoma MALME-3M versus fibroblast MALME-3; assay type: cell-based; conditions: for selectivity factor, melanoma cells relative to fibroblast control (LC25, 25 percent cell death, estimate of GI50): MALME-3M versus MALME-3
Description: […]. A cell line from a healthy fibroblast from the same patient has also been deposited with the American Type Cell Culture Corporation (ATCC). Fresh stockes of both MALME-3M and MALME-3 from ATCC. Avrainvillamide was test against the two cells lines at the same time, taking all possible precautions to ensure that both sets of samples were treated identically. […] As a measure of cytotoxicity and antiproliferative activity, we calculated both LC50 and LC25 (as an estimate of GI50).
The 9.7-fold selectivity at 25 percent cell death is representative of at least a modest degree of selectivity. For comparison, cytochalsine B and geldanamycin were analyzed in identical experiments. Cytochalasine B is a non-selective cytotoxic agent for which a selectivity factor of 0.2 at 25 percent cell death was observed. Geldanamycin is known to be a potent, selective inhibitor of tumor cell growth for which a selectivity factor of >100 at 25 percent cell death was observed.

T-47D cells = experiment: Cell cycle effects in T-47D cells; assay type: cell-based, human
HeLa S3 cells [5] = experiment: Apoptosis in HeLa S3 cells (Yo-Pro cell permeability, annexin-binding); assay type: cell-based, human; conditions: Yo-Pro cell permeability and annexin-binding experiments
LNCaP and T-47D cells = experiment: Western blot for apoptotic markers in LNCaP and T-47D cells; assay type: cell-based, human
[6] = previous report: 48-h incubation, MTS/PMS; cited from earlier work
proteins of T-47D cells = experiment: Affinity-isolation from T-47D cells, LC-MS/MS analysis of proteins; conditions: narrower region of the gel; equal concentrations
nucleophosmin = nucleophosmin (Homo sapiens, UniProt P06748); experiment: Competitive binding affinity-isolation with probe 5 in T-47D lysates, nucleophosmin

## CC1(C)C=Cc2c(ccc3c2[N+]([O-])=C2C3=C[C@@]34NC(=O)C5(CCCN5C3=O)CC4C2(C)C)O1 (single isomer, unassigned; (+)) [compound 1, (+)-Avrainvillamide]
exportin-1 (XPO1)
  blocking of the binding of probe 5 to exportin-1 (XPO1): capable of blocking
Peroxiredoxin 1 (PRX1)
  blocking of the binding of probe 5 to peroxiredoxin 1 (PRX1): capable of blocking
HeLa S3 cells [1]
  apoptosis in HeLa S3 cells reduced in nucleophosmin (siRNA) relative to mock-transfected cells: enhanced sensitivity
p53 [2]; 4 μM
  cellular p53 at the highest concentration: reduction in cellular p53
p53 [2]; Western-blot
  concentration giving a substantial increase in cellular p53: 500 nM
p53 [3]
  concentration giving a substantial increase in cellular p53: 500 nM
[4]; MALME-3M
  activity against MALME-3M cells: nanomolar activity
[4]; listed as Avrainvillamide
  selectivity factor, melanoma cells relative to fibroblast control (LC25, 25 percent cell death, estimate of GI50): 9.7
[4]; listed as avrainvillamide
  selectivity factor, melanoma cells relative to fibroblast control (LC25, 25 percent cell death, estimate of GI50): ~10
T-47D cells
  cell cycle accumulatory effects: immediate decrease in the number of cells in S-phase, followed by an increase in G2/M cells
HeLa S3 cells [5]
  cell death in HeLa S3 cells: cell death through apoptosis
LNCaP and T-47D cells
  apoptotic markers (Western blot): appearance of pro-apoptotic factors
[6]
  fold more potent than the unnatural enantiomer (antiproliferative activity): ~9 fold
Proteins of T-47D cells
  detection of nucleophosmin by LC-MS/MS after affinity isolation: not detected
nucleophosmin; 10 μM probe 5, 100 μM competitor, nuclear-enriched and whole-cell T-47D lysates
  binding of nucleophosmin to probe 5 in the presence of a 10-fold higher concentration of competitor: inhibited; also recorded: most effective
nucleophosmin; T-47D lysate
  concentration required for inhibition of probe 5-nucleophosmin binding: 100 µM
nucleophosmin; T-47D nuclear-enriched lysate
  inhibition of binding of nucleophosmin to probe 5 by analogues (FIG. 4): inhibited essentially equivalently
